Measured values published in patent publication US10800807B2, “TGR5 modulators and methods of use thereof” (Intercept Pharmaceuticals, Inc., priority 2015, dated 2020).
Numbering of substitutions follows the chain as printed. ≈ marks a conversion by molar mass, not a printed value. Read-outs that look alike come from different tables or passages of the source.

Assays:
[1] = biological target: T1, human glutathione transferase-tagged FXR-LBD (Homo sapiens, UniProt Q96RI1); test: FXR AlphaScreen coactivator recruitment assay (human); assay type: biochemical; parameters: Emax: dose or concentration left out as unconfirmed; conditions: for EC50: human FXR-LBD, AlphaScreen, read-out: hFXR EC50; for Emax: read-out: hFXR Efficacy;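 for hFXR Efficacy: CDCA at 50 µM taken as 100%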
T1 construct: human glutathione transferase-tagged FXR-LBD (Life Technologies, USA); purchased Life Technologies, USA
T1 sequence (Q96RI1 262-486 limits assumed): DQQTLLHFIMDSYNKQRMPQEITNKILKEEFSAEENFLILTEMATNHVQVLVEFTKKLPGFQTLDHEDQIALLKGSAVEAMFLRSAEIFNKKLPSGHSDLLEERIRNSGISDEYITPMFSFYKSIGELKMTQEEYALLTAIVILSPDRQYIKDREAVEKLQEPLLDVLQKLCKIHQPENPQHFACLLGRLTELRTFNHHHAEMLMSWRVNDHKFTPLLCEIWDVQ
Procedure: (§1) Activation of the FXR receptor was determined using a recruitment coactivator assay, namely AlphaScreen technology. The assays were performed using human glutathione transferase-tagged FXR-LBD (Life Technologies, USA) and mouse glutathione transferase-tagged FXR-LBD (generated in-house). Briefly, assays were conducted in white, low-volume, 384-well OptiPlate using a final volume of 25 μL containing 10 nM glutathione transferase-tagged FXR-LBD protein and 30 nM biotinylated Src-1 peptide. The stimulation was carried out with different BA concentrations for 30 minutes at 25° C. […] Dose-response curves were performed in triplicate and Z′ factor was used to validate the robustness of the assay.

mTGR5 = biological target: T2, mTGR5 (Mus musculus, UniProt Q80SS6); test: TGR5 activity: cAMP in mTGR5 CHO-Pi10 clone 4 cells; assay type: cell-based; conditions: for Emax: 0.5 h, read-out: (mTGR5 CHO) Efficacy
T2 construct: expressed in transfected cells; host or cells: CHO-Pi10 clone 4
T2 sequence (Q80SS6 1-329): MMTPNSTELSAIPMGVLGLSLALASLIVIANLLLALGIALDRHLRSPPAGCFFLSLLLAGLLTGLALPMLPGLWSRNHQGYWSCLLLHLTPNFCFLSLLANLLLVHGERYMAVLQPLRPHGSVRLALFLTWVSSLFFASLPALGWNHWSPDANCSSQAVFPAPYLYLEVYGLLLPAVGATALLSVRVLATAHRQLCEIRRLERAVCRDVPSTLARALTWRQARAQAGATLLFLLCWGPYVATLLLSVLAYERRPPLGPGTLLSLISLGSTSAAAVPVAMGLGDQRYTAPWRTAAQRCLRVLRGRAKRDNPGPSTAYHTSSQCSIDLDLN

[2] = Critical micellar concentration (surface tension / dye solubilization); assay type: physicochemical
TGR5 [3] = biological target: T3, TGR5 (Homo sapiens, UniProt Q8TDU6); test: TGR5 activity: cAMP in hTGR5 CHO-k1 cells; assay type: cell-based; parameters: expressed in transfected cells; host or cells: CHO-k1; conditions: for Emax: 0.5 h, read-out: hTGR5 CHO Efficacy; for EC50: cAMP
T3 sequence (Q8TDU6 1-330): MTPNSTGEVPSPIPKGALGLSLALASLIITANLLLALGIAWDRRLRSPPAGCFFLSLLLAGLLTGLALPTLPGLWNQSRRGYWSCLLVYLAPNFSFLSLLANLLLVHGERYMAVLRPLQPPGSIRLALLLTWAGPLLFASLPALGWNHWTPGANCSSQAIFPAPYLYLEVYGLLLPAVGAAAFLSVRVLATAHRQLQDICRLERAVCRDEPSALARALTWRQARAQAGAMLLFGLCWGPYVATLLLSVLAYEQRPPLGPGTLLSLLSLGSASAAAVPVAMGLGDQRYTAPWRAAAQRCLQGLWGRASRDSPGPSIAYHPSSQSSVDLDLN

[4] = biological target: T4, mouse glutathione transferase-tagged FXR-LBD (Mus musculus, UniProt Q60641); test: FXR AlphaScreen coactivator recruitment assay (mouse); assay type: biochemical; conditions: mouse FXR-LBD, value in parentheses; for EC50: read-out: (mFXR) EC50; for Emax: read-out: (mFXR) Efficacy
T4 construct: mouse glutathione transferase-tagged FXR-LBD (generated in-house); made in house
T4 sequence (Q60641 264-488 limits assumed): T1 sequence (Q96RI1 262-486 limits assumed) with H7D, F8Y, N46S, V50I, S95A, S98A, N107K, I125V, I174M, H175Y
Procedure: as §1

bovine serum albumin = bovine serum albumin (Bos taurus, UniProt P02769); test: Albumin binding by equilibrium dialysis; assay type: in vitro ADME; conditions: 5% bovine serum albumin saline solution, 25° C.
Sequence of bovine serum albumin (P02769 25-607): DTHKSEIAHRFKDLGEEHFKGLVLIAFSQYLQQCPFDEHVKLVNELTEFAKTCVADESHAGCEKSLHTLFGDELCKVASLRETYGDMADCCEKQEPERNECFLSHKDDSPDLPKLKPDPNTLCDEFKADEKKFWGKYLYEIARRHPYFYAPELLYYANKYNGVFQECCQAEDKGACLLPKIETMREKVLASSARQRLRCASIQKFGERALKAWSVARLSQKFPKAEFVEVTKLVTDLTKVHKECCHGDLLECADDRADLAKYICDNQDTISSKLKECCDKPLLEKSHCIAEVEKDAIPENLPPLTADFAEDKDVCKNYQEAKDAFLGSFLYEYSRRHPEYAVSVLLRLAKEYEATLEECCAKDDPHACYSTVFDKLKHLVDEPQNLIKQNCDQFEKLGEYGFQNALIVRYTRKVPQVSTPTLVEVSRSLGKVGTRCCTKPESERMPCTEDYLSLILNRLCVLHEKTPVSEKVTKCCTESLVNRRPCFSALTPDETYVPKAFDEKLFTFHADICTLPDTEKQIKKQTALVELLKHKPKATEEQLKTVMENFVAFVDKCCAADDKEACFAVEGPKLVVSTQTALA
Procedure: BA was dissolved at a concentration of […] in 5% bovine serum albumin saline solution and left to stand for 24 hours at 25° C. Two milliliters of this solution was dialyzed in cellulose sacs with a molecular weight cut-off of 12-14 kDa (Spectra/Por; Spectrum Medical Industries Inc., Rancho Dominguez, Calif.) against 25 ml of saline solution. The system was equilibrated by mechanical shaking for 72 hours at 25° C. BA concentrations in the starting solution and in the dialyzed solution were determined by HPLC-ES-MS/MS as reported below.

Water solubility = assay type: physicochemical; conditions: 0.1 M HCl, pH 1.00, 25° C., read-out: Ws
Procedure: BA were suspended in 100 ml of 0.1 M HCl, pH 1.00, and the saturated solutions were transferred to a thermostat-equipped water bath maintained at 25° C. After incubation for 1 week, the solutions were filtered on a Millipore filter ([…]), and the concentration of BA was measured by HPLC-ESMS/MS as reported below.

[5] = Lipophilicity, 1-octanol/water partition coefficient (shake-flask); assay type: physicochemical; conditions: pH 8.00, ionized BA
Procedure: The experiments were carried out on 1 mM initial bile salt solution buffered at pH 8.00 with 0.1 M potassium phosphate buffer to ensure complete ionization of the BA. BA concentration in the water phase before and after partition in 1-octanol was measured by HPLC-ESMS/MS as reported below.

[6] = Critical micellar concentration (surface tension / dye solubilization); assay type: physicochemical; conditions: for CMC: BA sodium salts in 0.1 M NaCl, 25° C.; for STCMC: surface tension at CMC
Procedure: In the first method, the surface tension was performed by maximum bubble-pressure method using a Sensadyne 6000 tensiometer (Chem-Dyne Research Corp., Milwaukee, Wis.). The surface tension of aqueous solutions at various concentrations (range 0.1-100 mM) of the BA sodium salts in 0.1 M NaCl was measured at 25° C. The surface tension values were plotted against the logarithm of the bile salt concentration; the regression lines corresponding to the two parts of the curve (monomeric and micellar phases) were calculated using the method of least squares. The critical micellar concentration (CMC) value (mM) was obtained by the intersection of the two lines.
The second method is based on the fact that some dyes, specifically Orange OT ([…]), are almost insoluble in water but dissolve in solutions with micellar aggregates that incorporate them; thus, the intensity of color of the solution increases with bile salt concentration (after CMC achievement). The amount of dye solubilized in relation to bile salt concentration was determined spectrophotometrically.
For each bile acid, various solution at different concentrations, between 50 mM and 0.1 mM with appropriate dilutions, were incubated under stirring at room temperature for 3 days with an excess of Orange OT. Then all the solutions were centrifuged and filtered through a 0.22 μm Millipore fiiter (Millipore Corp., Bedford, Mass.).

TGR5 [7] = biological target: T3, TGR5; test: TGR5 activity: intracellular cAMP levels, NCI-H716 cells (HTR-FRET); assay type: cell-based; parameters: endogenous in cells; host or cells: NCI-H716; conditions: for Emax: read-out: TGR5 (NCI-H716) Efficacy; for EC50: cAMP
Procedure: Activation of TGR5 was assessed by measuring the level of cAMP using an HTR-FRET assay. Thus, NCI-H716 cells were cultured on 96-well plates coated with Matrigel (Corning, USA) (0.75 mg/ml) in DMEM supplemented with 10% FCS, 100 units/ml penicillin, and 100 μg/ml streptomycin sulphate. […] The level of intracellular cAMP was determined with Lance kit. Z′ factor was used to validate assays.

[8] = mTGR5 CHO cells, value in parentheses
[9] = simulated gastric fluid, thermodynamic from solid
[10] = hTGR5 CHO cells, Ref. LCA 100% at 10 μM
[11] = 1 h, NCI-H716 cells, Ref. LCA 100% at 10 μM

CC[C@H]1[C@@H](O)C2C3CC[C@H]([C@H](C)C[C@@H](CO)C(=O)O)[C@@]3(C)[C@@H](O)CC2[C@@]2(C)CC[C@@H](O)C[C@@H]12 (stereo partly drawn) [Compound 4, 3α,7α,12α-Trihydroxy-6α-ethyl-23(A)-hydroxymethyl-5β-cholan-24-oic acid]
EC50 [1]: 80000 ± 30000 nM | Emax [1]: 20 ± 2% | Emax (mTGR5; CHO): 102% | EC50 (mTGR5; [8]): 1300 nM | CMpH [2]: 4.5 | Emax (TGR5 [3]; CHO): 99 ± 1.4% | EC50 (TGR5 [3]; hTGR5 CHO cells): 4650 ± 500 nM | EC50 [4]: > 150000 nM | Albumin binding (%) (bovine serum albumin): 55% | solubility thermodynamic at 1 week (Water solubility; [9]): 3200 µM (≈ 1490 µg/mL) | LogPA− [5]: −0.2 | pKa (pKa): 4.36 | CMC [6]: 5 mM | Emax (TGR5 [7]; NCI-H716, 1 h): 77 ± 10% | EC50 (TGR5 [7]; NCI-H716 cells): 7500 ± 5000 nM

CC[C@H]1[C@@H](O)[C@@H]2[C@H](C[C@H](O)[C@]3(C)[C@@H]([C@H](C)C[C@H](F)C(=O)O)CC[C@@H]23)[C@@]2(C)CC[C@@H](O)C[C@@H]12 [Compound 8, 3α,7α,12α-Trihydroxy-6α-ethyl-23(S)-fluoro-5β-cholan-24-oate]
EC50 [1]: 5600 ± 1000 nM | Emax [1]: 113 ± 3% | Emax (mTGR5; [8]): 100% | EC50 (mTGR5; [8]): 780 nM | CMpH [2]: 3.6 | Emax (TGR5 [3]; [10]): 103 ± 2% | EC50 (TGR5 [3]; hTGR5 CHO cells): 500 ± 100 nM | EC50 [4]: 59500 nM | Emax [4]: 47% | Albumin binding (%) (bovine serum albumin): 84% | solubility thermodynamic at 1 week (Water solubility; [9]): 971 µM (≈ 441 µg/mL) | LogPA− [5]: 0.01 | pKa (pKa): 2.82 | CMC [6]: 6 mM | Emax (TGR5 [7]; [11]): 97 ± 1.7% | EC50 (TGR5 [7]; NCI-H716 cells): 7000 ± 3000 nM

CC[C@H]1[C@@H](O)[C@@H]2[C@H](C[C@H](O)[C@]3(C)[C@@H]([C@H](C)C[C@@H](F)C(=O)O)CC[C@@H]23)[C@@]2(C)CC[C@@H](O)C[C@@H]12 [Compound 9, 3α,7α,12α-Trihydroxy-6α-ethyl-23(R)-fluoro-5β-cholan-24-oate]
EC50 [1]: 2900 ± 900 nM | Emax [1]: 147 ± 20% | Emax (mTGR5; [8]): 90% | EC50 (mTGR5; [8]): 1800 nM | CMpH [2]: 3.9 | Emax (TGR5 [3]; [10]): 98 ± 2% | EC50 (TGR5 [3]; hTGR5 CHO cells): 1400 ± 300 nM | EC50 [4]: 55000 nM | Emax [4]: 127% | Albumin binding (%) (bovine serum albumin): 89% | solubility thermodynamic at 1 week (Water solubility; [9]): 469 µM (≈ 213 µg/mL) | LogPA− [5]: 0.2 | pKa (pKa): 2.82 | CMC [6]: 6 mM | Emax (TGR5 [7]; [11]): 75 ± 6% | EC50 (TGR5 [7]; NCI-H716 cells): 22000 ± 3000 nM

CC[C@H]1[C@@H](O)C2C3CC[C@H]([C@H](C)CC(F)(F)C(=O)O)[C@@]3(C)CCC2[C@@]2(C)CC[C@@H](O)C[C@@H]12 (stereo partly drawn) [Compound 10, 3α,7α-Dihydroxy-6α-ethyl-23,23-gemdifluoro-5β-cholan-24-oic acid]
EC50 [1]: 200 ± 40 nM | Emax [1]: 128 ± 4% | Emax (mTGR5; [8]): 102% | EC50 (mTGR5; [8]): 600 nM | CMpH [2]: 3.7 | Emax (TGR5 [3]; [10]): 103 ± 1% | EC50 (TGR5 [3]; hTGR5 CHO cells): 340 ± 40 nM | EC50 [4]: 7100 nM | Emax [4]: 143% | Albumin binding (%) (bovine serum albumin): 66% | solubility thermodynamic at 1 week (Water solubility; [9]): 16 µM (≈ 7.31 µg/mL) | LogPA− [5]: 1.4 | pKa (pKa): 1.1 | CMC [6]: 8.5 mM | Emax (TGR5 [7]; [11]): 125 ± 1% | EC50 (TGR5 [7]; NCI-H716 cells): 1600 ± 200 nM

C[C@H](CCC(=O)NCC(=O)O)[C@H]1CC[C@H]2[C@@H]3[C@H](O)C[C@@H]4C[C@H](O)CC[C@]4(C)[C@H]3CC[C@]12C [GCDCA, reference compound]
CMpH [2]: 6.4 | Albumin binding (%) (bovine serum albumin): 85% | solubility thermodynamic at 1 week (Water solubility): 7 µM (≈ 3.15 µg/mL) | LogPA− [5]: 0.4 | pKa (pKa): 3.9 | CMC [6]: 2 mM | STCMC [6]: 45.2 Dyne/cm

C[C@H](CC(=O)O)[C@H]1CC[C@H]2[C@@H]3[C@H](O)C[C@@H]4C[C@H](O)CC[C@]4(C)[C@H]3CC[C@]12C [Nor-CDCA, 24-nor-CDCA, reference compound]
CMpH [2]: 7.9 | Albumin binding (%) (bovine serum albumin): 95% | solubility thermodynamic at 1 week (Water solubility): 23 µM (≈ 8.71 µg/mL) | LogPA− [5]: 0.5 | pKa (pKa): 5 | CMC [6]: 20 mM

CC[C@H]1[C@@H](O)C2C3CC[C@H]([C@H](C)CCC(=O)O)[C@@]3(C)CCC2[C@@]2(C)CC[C@@H](O)C[C@@H]12 (some centres unmarked) [Ref. Cmpd. B, reference compound]
CMpH [2]: 7.2 | Albumin binding (%) (bovine serum albumin): 96% | solubility thermodynamic at 1 week (Water solubility; [9]): 9 µM (≈ 3.79 µg/mL) | LogPA− [5]: 2.5 | pKa (pKa): 5 | CMC [6]: 2.9 mM | STCMC [6]: 48.8 Dyne/cm
